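A five-concentration, 48-hour dose response in 96-well plates underlies each endpoint, interpolated linearly between surrounding concentrations. The concentration for full growth arrest is given as TGI.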
What was measured:
Assay in all cases: NCI-60 cell line screen, 48 h
786-0 renal = tested on: 786-0 renal
A498 renal = tested on: A498 renal
A549 NSCLC = tested on: A549 NSCLC
ACHN renal = tested on: ACHN renal
CAKI-1 renal = tested on: CAKI-1 renal
CCRF-CEM leukemia = tested on: CCRF-CEM leukemia
COLO 205 colon = tested on: COLO 205 colon
DLD-1 colon = tested on: DLD-1 colon
DMS 114 small cell lung = tested on: DMS 114 small cell lung
DMS 273 small cell lung = tested on: DMS 273 small cell lung
EKVX NSCLC = tested on: EKVX NSCLC
HCC-2998 colon = tested on: HCC-2998 colon
HCT-116 colon = tested on: HCT-116 colon
HCT-15 colon = tested on: HCT-15 colon
HL-60(TB) leukemia = tested on: HL-60(TB) leukemia
HOP-18 NSCLC = tested on: HOP-18 NSCLC
HOP-62 NSCLC = tested on: HOP-62 NSCLC
HOP-92 NSCLC = tested on: HOP-92 NSCLC
HT29 colon = tested on: HT29 colon
IGROV1 ovarian = tested on: IGROV1 ovarian
K-562 leukemia = tested on: K-562 leukemia
KM12 colon = tested on: KM12 colon
KM20L2 colon = tested on: KM20L2 colon
LOX IMVI melanoma = tested on: LOX IMVI melanoma
LXFL 529 NSCLC = tested on: LXFL 529 NSCLC
M14 melanoma = tested on: M14 melanoma
M19-MEL melanoma = tested on: M19-MEL melanoma
MALME-3M melanoma = tested on: MALME-3M melanoma
MOLT-4 leukemia = tested on: MOLT-4 leukemia
NCI-H226 lung = tested on: NCI-H226 lung
NCI-H23 lung = tested on: NCI-H23 lung
NCI-H460 lung = tested on: NCI-H460 lung
NCI-H522 lung = tested on: NCI-H522 lung
OVCAR-3 ovarian = tested on: OVCAR-3 ovarian
OVCAR-4 ovarian = tested on: OVCAR-4 ovarian
OVCAR-5 ovarian = tested on: OVCAR-5 ovarian
OVCAR-8 ovarian = tested on: OVCAR-8 ovarian
RPMI-8226 leukemia = tested on: RPMI-8226 leukemia
RXF 393 renal = tested on: RXF 393 renal
SF-268 CNS = tested on: SF-268 CNS
SF-295 CNS = tested on: SF-295 CNS
SF-539 CNS = tested on: SF-539 CNS
SK-MEL-2 melanoma = tested on: SK-MEL-2 melanoma
SK-MEL-28 melanoma = tested on: SK-MEL-28 melanoma
SK-MEL-5 melanoma = tested on: SK-MEL-5 melanoma
SK-OV-3 ovarian = tested on: SK-OV-3 ovarian
SN12C renal = tested on: SN12C renal
SNB-19 CNS = tested on: SNB-19 CNS
SNB-75 CNS = tested on: SNB-75 CNS
SNB-78 CNS = tested on: SNB-78 CNS
SR leukemia = tested on: SR leukemia
SW-620 colon = tested on: SW-620 colon
TK-10 renal = tested on: TK-10 renal
U251 CNS = tested on: U251 CNS
UACC-257 melanoma = tested on: UACC-257 melanoma
UACC-62 melanoma = tested on: UACC-62 melanoma
UO-31 renal = tested on: UO-31 renal
XF 498 CNS = tested on: XF 498 CNS
BT-549 breast = tested on: BT-549 breast
DU-145 prostate = tested on: DU-145 prostate
HS 578T breast = tested on: HS 578T breast
MCF7 breast = tested on: MCF7 breast
MDA-MB-231 breast = tested on: MDA-MB-231 breast
MDA-MB-435 = tested on: MDA-MB-435
MDA-N = tested on: MDA-N
PC-3 prostate = tested on: PC-3 prostate
T-47D breast = tested on: T-47D breast

SMILES: COC(=O)c1cc(C(=O)OC)c(CC(=O)C(=O)NC2C3CC4CC(C3)CC2C4)nc1CC(=O)C(=O)NC1C2CC3CC(C2)CC1C3 (centres undefined)
- TGI (786-0 renal): > 100 µM
- TGI (A498 renal): > 100 µM
- TGI (A549 NSCLC): > 100 µM
- TGI (ACHN renal): > 100 µM
- TGI (CAKI-1 renal): > 100 µM
- TGI (CCRF-CEM leukemia): > 100 µM
- TGI (COLO 205 colon): > 100 µM
- TGI (DLD-1 colon): > 100 µM
- TGI (DMS 114 small cell lung): > 100 µM
- TGI (DMS 273 small cell lung): > 100 µM
- TGI (EKVX NSCLC): > 100 µM
- TGI (HCC-2998 colon): > 100 µM
- TGI (HCT-116 colon): > 100 µM
- TGI (HCT-15 colon): > 100 µM
- TGI (HL-60(TB) leukemia): > 100 µM
- TGI (HOP-18 NSCLC): > 100 µM
- TGI (HOP-62 NSCLC): > 100 µM
- TGI (HOP-92 NSCLC): > 100 µM
- TGI (HT29 colon): > 100 µM
- TGI (IGROV1 ovarian): > 100 µM
- TGI (K-562 leukemia): > 100 µM
- TGI (KM12 colon): > 100 µM
- TGI (KM20L2 colon): > 100 µM
- TGI (LOX IMVI melanoma): > 100 µM
- TGI (LXFL 529 NSCLC): > 100 µM
- TGI (M14 melanoma): > 100 µM
- TGI (M19-MEL melanoma): > 100 µM
- TGI (MALME-3M melanoma): > 100 µM
- TGI (MOLT-4 leukemia): > 100 µM
- TGI (NCI-H226 lung): > 100 µM
- TGI (NCI-H23 lung): > 100 µM
- TGI (NCI-H460 lung): > 100 µM
- TGI (NCI-H522 lung): > 100 µM
- TGI (OVCAR-3 ovarian): > 100 µM
- TGI (OVCAR-4 ovarian): > 100 µM
- TGI (OVCAR-5 ovarian): > 100 µM
- TGI (OVCAR-8 ovarian): > 100 µM
- TGI (RPMI-8226 leukemia): > 100 µM
- TGI (RXF 393 renal): > 100 µM
- TGI (SF-268 CNS): > 100 µM
- TGI (SF-295 CNS): > 100 µM
- TGI (SF-539 CNS): > 100 µM
- TGI (SK-MEL-2 melanoma): > 100 µM
- TGI (SK-MEL-28 melanoma): > 100 µM
- TGI (SK-MEL-5 melanoma): > 100 µM
- TGI (SK-OV-3 ovarian): > 100 µM
- TGI (SN12C renal): > 100 µM
- TGI (SNB-19 CNS): > 100 µM
- TGI (SNB-75 CNS): > 100 µM
- TGI (SNB-78 CNS): > 100 µM
- TGI (SR leukemia): > 100 µM
- TGI (SW-620 colon): > 100 µM
- TGI (TK-10 renal): > 100 µM
- TGI (U251 CNS): > 100 µM
- TGI (UACC-257 melanoma): > 100 µM
- TGI (UACC-62 melanoma): > 100 µM
- TGI (UO-31 renal): > 100 µM

SMILES: COc1ccc(C2=NN(c3ccccc3)C[N+](c3ccc(C)cc3)=N2)cc1
- TGI (786-0 renal): > 100 µM
- TGI (A498 renal): > 100 µM
- TGI (A549 NSCLC): > 100 µM
- TGI (ACHN renal): > 100 µM
- TGI (CCRF-CEM leukemia): 60.8 µM
- TGI (COLO 205 colon): > 100 µM
- TGI (DLD-1 colon): > 100 µM
- TGI (DMS 114 small cell lung): 65.1 µM
- TGI (DMS 273 small cell lung): > 10 µM
- TGI (EKVX NSCLC): > 100 µM
- TGI (HCC-2998 colon): > 100 µM
- TGI (HCT-116 colon): > 100 µM
- TGI (HCT-15 colon): > 100 µM
- TGI (HL-60(TB) leukemia): > 100 µM
- TGI (HOP-62 NSCLC): > 100 µM
- TGI (HT29 colon): > 100 µM
- TGI (IGROV1 ovarian): > 100 µM
- TGI (K-562 leukemia): 53.9 µM
- TGI (KM12 colon): > 10 µM
- TGI (KM20L2 colon): > 100 µM
- TGI (LOX IMVI melanoma): > 100 µM
- TGI (LXFL 529 NSCLC): 38.5 µM
- TGI (M19-MEL melanoma): > 100 µM
- TGI (MALME-3M melanoma): > 100 µM
- TGI (MOLT-4 leukemia): 88.5 µM
- TGI (NCI-H226 lung): > 100 µM
- TGI (NCI-H23 lung): > 100 µM
- TGI (NCI-H460 lung): > 100 µM
- TGI (NCI-H522 lung): 26.5 µM
- TGI (OVCAR-3 ovarian): 47.2 µM
- TGI (OVCAR-4 ovarian): 43.3 µM
- TGI (OVCAR-5 ovarian): 79.8 µM
- TGI (OVCAR-8 ovarian): > 100 µM
- TGI (RPMI-8226 leukemia): 67.4 µM
- TGI (RXF 393 renal): 57.9 µM
- TGI (SF-268 CNS): > 100 µM
- TGI (SF-295 CNS): > 100 µM
- TGI (SK-MEL-28 melanoma): > 100 µM
- TGI (SK-MEL-5 melanoma): > 10 µM
- TGI (SN12C renal): > 100 µM
- TGI (SNB-19 CNS): > 100 µM
- TGI (SNB-78 CNS): > 100 µM
- TGI (SR leukemia): > 100 µM
- TGI (SW-620 colon): 64.4 µM
- TGI (TK-10 renal): > 100 µM
- TGI (U251 CNS): 45.3 µM
- TGI (UACC-257 melanoma): > 100 µM
- TGI (UO-31 renal): > 100 µM
- TGI (XF 498 CNS): 52.9 µM

SMILES: BrC(Br)=C1C(=C(Br)Br)C(Br)C1Br (centres undefined)
- TGI (786-0 renal): 0.882 µM
- TGI (A498 renal): 3.38 µM
- TGI (A549 NSCLC): 3 µM
- TGI (ACHN renal): 1.49 µM
- TGI (BT-549 breast): 6.93 µM
- TGI (CAKI-1 renal): 0.898 µM
- TGI (CCRF-CEM leukemia): 1.6 µM
- TGI (COLO 205 colon): 2.59 µM
- TGI (DLD-1 colon): 1.98 µM
- TGI (DMS 114 small cell lung): 0.552 µM
- TGI (DMS 273 small cell lung): 1.25 µM
- TGI (DU-145 prostate): 0.502 µM
- TGI (EKVX NSCLC): 4.98 µM
- TGI (HCC-2998 colon): 0.777 µM
- TGI (HCT-116 colon): 1.1 µM
- TGI (HCT-15 colon): 1.73 µM
- TGI (HOP-18 NSCLC): 9.19 µM
- TGI (HOP-62 NSCLC): 2.88 µM
- TGI (HOP-92 NSCLC): 2.96 µM
- TGI (HS 578T breast): 23.3 µM
- TGI (HT29 colon): 1.49 µM
- TGI (IGROV1 ovarian): 5.68 µM
- TGI (K-562 leukemia): 1.19 µM
- TGI (KM12 colon): 2.15 µM
- TGI (KM20L2 colon): 3.04 µM
- TGI (LOX IMVI melanoma): 1.03 µM
- TGI (LXFL 529 NSCLC): 1.85 µM
- TGI (M14 melanoma): 0.592 µM
- TGI (M19-MEL melanoma): 1.99 µM
- TGI (MALME-3M melanoma): 1.59 µM
- TGI (MCF7 breast): 1.31 µM
- TGI (MDA-MB-231 breast): 3.63 µM
- TGI (MDA-MB-435): 2.82 µM
- TGI (MDA-N): 1.92 µM
- TGI (NCI-H226 lung): 0.67 µM
- TGI (NCI-H23 lung): 1.46 µM
- TGI (NCI-H460 lung): 1.35 µM
- TGI (NCI-H522 lung): 0.299 µM
- TGI (OVCAR-3 ovarian): 2.15 µM
- TGI (OVCAR-4 ovarian): 6.18 µM
- TGI (OVCAR-5 ovarian): 3.27 µM
- TGI (OVCAR-8 ovarian): 5.46 µM
- TGI (PC-3 prostate): 5.42 µM
- TGI (RPMI-8226 leukemia): 1.14 µM
- TGI (RXF 393 renal): 0.948 µM
- TGI (SF-268 CNS): 1.51 µM
- TGI (SF-295 CNS): 2.32 µM
- TGI (SK-MEL-2 melanoma): 7.7 µM
- TGI (SK-MEL-28 melanoma): 3.06 µM
- TGI (SK-MEL-5 melanoma): 2.04 µM
- TGI (SK-OV-3 ovarian): 12.7 µM
- TGI (SN12C renal): 2.31 µM
- TGI (SNB-19 CNS): 15.5 µM
- TGI (SNB-75 CNS): 5.62 µM
- TGI (SNB-78 CNS): 3.54 µM
- TGI (SR leukemia): 1.54 µM
- TGI (SW-620 colon): 1 µM
- TGI (T-47D breast): > 100 µM
- TGI (TK-10 renal): 1.93 µM
- TGI (U251 CNS): 2.69 µM
- TGI (UACC-257 melanoma): 5.3 µM
- TGI (UACC-62 melanoma): 1.91 µM
- TGI (UO-31 renal): 2.24 µM

— PubChem BioAssay (NCI)
